Source: the NIST ThermoML archive (doi:10.1021/je5005752)

Assay: xn = mol fraction of the nth substance listed
Settings: 101 kPa, Liquid; for viscosity: Falling or rolling sphere viscometry; for mass density: Vibrating tube method

CCCC(=O)OCC [ethyl butanoate] + CCCCCCO
Settings | mass density [kg/m3] | viscosity [mPa·s]
288.15 K, x1 = 0.0997 | 828.32 | 4.176
288.15 K, x1 = 0.1998 | 834.25 | 2.965
288.15 K, x1 = 0.3002 | 840.39 | 2.214
288.15 K, x1 = 0.4 | 846.47 | 1.735
288.15 K, x1 = 0.5 | 852.62 | 1.399
288.15 K, x1 = 0.5998 | 858.84 | 1.17
288.15 K, x1 = 0.6999 | 865.11 | 0.9966
288.15 K, x1 = 0.7999 | 871.43 | 0.8726
288.15 K, x1 = 0.8998 | 877.77 | 0.7818
288.15 K, x1 = 1 | 884.16 | 0.7224
293.15 K, x1 = 0.0997 | 824.57 | 3.6
293.15 K, x1 = 0.1998 | 830.32 | 2.6
293.15 K, x1 = 0.3002 | 836.29 | 1.97
293.15 K, x1 = 0.4 | 842.19 | 1.563
293.15 K, x1 = 0.5 | 848.18 | 1.274
293.15 K, x1 = 0.5998 | 854.23 | 1.075
293.15 K, x1 = 0.6999 | 860.32 | 0.9233
293.15 K, x1 = 0.7999 | 866.48 | 0.8142
293.15 K, x1 = 0.8998 | 872.65 | 0.7339
293.15 K, x1 = 1 | 878.9 | 0.6808
298.15 K, x1 = 0.0997 | 820.8 | 3.124
298.15 K, x1 = 0.1998 | 826.39 | 2.295
298.15 K, x1 = 0.3002 | 832.17 | 1.762
298.15 K, x1 = 0.4 | 837.9 | 1.414
298.15 K, x1 = 0.5 | 843.72 | 1.166
298.15 K, x1 = 0.5998 | 849.59 | 0.991
298.15 K, x1 = 0.6999 | 855.52 | 0.857
298.15 K, x1 = 0.7999 | 861.51 | 0.761
298.15 K, x1 = 0.8998 | 867.52 | 0.6898
298.15 K, x1 = 1 | 873.62 | 0.643
303.15 K, x1 = 0.0997 | 817.02 | 2.731
303.15 K, x1 = 0.1998 | 822.43 | 2.038
303.15 K, x1 = 0.3002 | 828.03 | 1.585
303.15 K, x1 = 0.4 | 833.6 | 1.286
303.15 K, x1 = 0.5 | 839.24 | 1.069
303.15 K, x1 = 0.5998 | 844.95 | 0.9185
303.15 K, x1 = 0.6999 | 850.71 | 0.7979
303.15 K, x1 = 0.7999 | 856.53 | 0.7129
303.15 K, x1 = 0.8998 | 862.38 | 0.6492
303.15 K, x1 = 1 | 868.33 | 0.6072
308.15 K, x1 = 0.0997 | 813.22 | 2.403
308.15 K, x1 = 0.1998 | 818.46 | 1.819
308.15 K, x1 = 0.3002 | 823.88 | 1.433
308.15 K, x1 = 0.4 | 829.27 | 1.174
308.15 K, x1 = 0.5 | 834.75 | 0.9852
308.15 K, x1 = 0.5998 | 840.28 | 0.8501
308.15 K, x1 = 0.6999 | 845.88 | 0.7452
308.15 K, x1 = 0.7999 | 851.54 | 0.6686
308.15 K, x1 = 0.8998 | 857.23 | 0.6113
308.15 K, x1 = 1 | 863.02 | 0.5736
313.15 K, x1 = 0.0997 | 809.4 | 2.124
313.15 K, x1 = 0.1998 | 814.46 | 1.631
313.15 K, x1 = 0.3002 | 819.7 | 1.3
313.15 K, x1 = 0.4 | 824.92 | 1.076
313.15 K, x1 = 0.5 | 830.23 | 0.9099
313.15 K, x1 = 0.5998 | 835.6 | 0.7898
313.15 K, x1 = 0.6999 | 841.02 | 0.6964
313.15 K, x1 = 0.7999 | 846.52 | 0.6277
313.15 K, x1 = 0.8998 | 852.06 | 0.5762
313.15 K, x1 = 1 | 857.7 | 0.5425
318.15 K, x1 = 0.0997 | 805.54 | 1.887
318.15 K, x1 = 0.1998 | 810.43 | 1.469
318.15 K, x1 = 0.3002 | 815.5 | 1.184
318.15 K, x1 = 0.4 | 820.55 | 0.9878
318.15 K, x1 = 0.5 | 825.69 | 0.8422
318.15 K, x1 = 0.5998 | 830.89 | 0.7355
318.15 K, x1 = 0.6999 | 836.15 | 0.652
318.15 K, x1 = 0.7999 | 841.48 | 0.5903
318.15 K, x1 = 0.8998 | 846.86 | 0.544
318.15 K, x1 = 1 | 852.36 | 0.5132
323.15 K, x1 = 0.0997 | 801.66 | 1.7
323.15 K, x1 = 0.1998 | 806.38 | 1.332
323.15 K, x1 = 0.3002 | 811.27 | 1.089
323.15 K, x1 = 0.4 | 816.15 | 0.9186
323.15 K, x1 = 0.5 | 821.13 | 0.788
323.15 K, x1 = 0.5998 | 826.16 | 0.6919
323.15 K, x1 = 0.6999 | 831.25 | 0.6147
323.15 K, x1 = 0.7999 | 836.43 | 0.5594
323.15 K, x1 = 0.8998 | 841.64 | 0.5176
323.15 K, x1 = 1 | 847 | 0.487

CCCC(=O)OCC [ethyl butanoate] + CC(C)CO
Settings | mass density [kg/m3] | viscosity [mPa·s]
288.15 K, x1 = 0.1 | 816.01 | 2.899
288.15 K, x1 = 0.2001 | 825.5 | 2
288.15 K, x1 = 0.3001 | 834.2 | 1.516
288.15 K, x1 = 0.3999 | 842.57 | 1.24
288.15 K, x1 = 0.5 | 850.43 | 1.057
288.15 K, x1 = 0.5999 | 857.77 | 0.9319
288.15 K, x1 = 0.7001 | 864.75 | 0.8287
288.15 K, x1 = 0.8001 | 871.45 | 0.785
288.15 K, x1 = 0.8997 | 877.93 | 0.7449
288.15 K, x1 = 1 | 884.16 | 0.7224
293.15 K, x1 = 0.1 | 811.92 | 2.51
293.15 K, x1 = 0.2001 | 821.21 | 1.768
293.15 K, x1 = 0.3001 | 829.72 | 1.363
293.15 K, x1 = 0.3999 | 837.92 | 1.129
293.15 K, x1 = 0.5 | 845.64 | 0.9727
293.15 K, x1 = 0.5999 | 852.86 | 0.8638
293.15 K, x1 = 0.7001 | 859.73 | 0.7883
293.15 K, x1 = 0.8001 | 866.33 | 0.7356
293.15 K, x1 = 0.8997 | 872.73 | 0.7006
293.15 K, x1 = 1 | 878.9 | 0.6808
298.15 K, x1 = 0.1 | 807.82 | 2.19
298.15 K, x1 = 0.2001 | 816.89 | 1.571
298.15 K, x1 = 0.3001 | 825.21 | 1.233
298.15 K, x1 = 0.3999 | 833.26 | 1.032
298.15 K, x1 = 0.5 | 840.84 | 0.8977
298.15 K, x1 = 0.5999 | 847.92 | 0.8022
298.15 K, x1 = 0.7001 | 854.69 | 0.7366
298.15 K, x1 = 0.8001 | 861.2 | 0.6907
298.15 K, x1 = 0.8997 | 867.52 | 0.6599
298.15 K, x1 = 1 | 873.62 | 0.643
303.15 K, x1 = 0.1 | 803.67 | 1.92
303.15 K, x1 = 0.2001 | 812.54 | 1.406
303.15 K, x1 = 0.3001 | 820.68 | 1.118
303.15 K, x1 = 0.3999 | 828.56 | 0.9462
303.15 K, x1 = 0.5 | 836 | 0.8309
303.15 K, x1 = 0.5999 | 842.97 | 0.7472
303.15 K, x1 = 0.7001 | 849.63 | 0.6895
303.15 K, x1 = 0.8001 | 856.05 | 0.6488
303.15 K, x1 = 0.8997 | 862.29 | 0.6217
303.15 K, x1 = 1 | 868.33 | 0.6072
308.15 K, x1 = 0.1 | 799.49 | 1.693
308.15 K, x1 = 0.2001 | 808.15 | 1.262
308.15 K, x1 = 0.3001 | 816.12 | 1.018
308.15 K, x1 = 0.3999 | 823.84 | 0.8702
308.15 K, x1 = 0.5 | 831.14 | 0.7709
308.15 K, x1 = 0.5999 | 837.99 | 0.6967
308.15 K, x1 = 0.7001 | 844.55 | 0.6458
308.15 K, x1 = 0.8001 | 850.88 | 0.6101
308.15 K, x1 = 0.8997 | 857.04 | 0.5862
308.15 K, x1 = 1 | 863.02 | 0.5736
313.15 K, x1 = 0.1 | 795.27 | 1.501
313.15 K, x1 = 0.2001 | 803.72 | 1.137
313.15 K, x1 = 0.3001 | 811.51 | 0.9295
313.15 K, x1 = 0.3999 | 819.09 | 0.8021
313.15 K, x1 = 0.5 | 826.25 | 0.7166
313.15 K, x1 = 0.5999 | 832.98 | 0.6507
313.15 K, x1 = 0.7001 | 839.44 | 0.6059
313.15 K, x1 = 0.8001 | 845.69 | 0.5742
313.15 K, x1 = 0.8997 | 851.78 | 0.5531
313.15 K, x1 = 1 | 857.7 | 0.5425
318.15 K, x1 = 0.1 | 791 | 1.337
318.15 K, x1 = 0.2001 | 799.25 | 1.029
318.15 K, x1 = 0.3001 | 806.87 | 0.8513
318.15 K, x1 = 0.3999 | 814.29 | 0.7413
318.15 K, x1 = 0.5 | 821.33 | 0.6676
318.15 K, x1 = 0.5999 | 827.95 | 0.6086
318.15 K, x1 = 0.7001 | 834.31 | 0.569
318.15 K, x1 = 0.8001 | 840.47 | 0.5409
318.15 K, x1 = 0.8997 | 846.5 | 0.5224
318.15 K, x1 = 1 | 852.36 | 0.5132
323.15 K, x1 = 0.1 | 786.67 | 1.219
323.15 K, x1 = 0.2001 | 794.73 | 0.9403
323.15 K, x1 = 0.3001 | 802.18 | 0.785
323.15 K, x1 = 0.3999 | 809.46 | 0.6914
323.15 K, x1 = 0.5 | 816.36 | 0.6257
323.15 K, x1 = 0.5999 | 822.87 | 0.5716
323.15 K, x1 = 0.7001 | 829.14 | 0.5382
323.15 K, x1 = 0.8001 | 835.23 | 0.5126
323.15 K, x1 = 0.8997 | 841.18 | 0.4958
323.15 K, x1 = 1 | 847 | 0.487
